Laboratory results published in paper PMC2358886, “Evolution of pharmacologic specificity in the pregnane X receptor” (BMC Evolutionary Biology, 2008).
Read-outs that look alike come from different tables or passages of the source.

Assays:
[1] = test system: HepG2 cells; assay: Toxicity assays in HepG2 cells (MTT and alamar blue reduction); settings: lowest concentration that produced significant toxicity in the HepG2 cells
[2] = biological target: T1, human PXR (Homo sapiens, UniProt O75469); assay: PXR activation luciferase reporter assay, human PXR in HepG2-NTCP cells; settings: for hPXR Efficacy: relative to 10 μM rifampicin, assigned an efficacy of 1.0
T1 sequence (O75469 1-434): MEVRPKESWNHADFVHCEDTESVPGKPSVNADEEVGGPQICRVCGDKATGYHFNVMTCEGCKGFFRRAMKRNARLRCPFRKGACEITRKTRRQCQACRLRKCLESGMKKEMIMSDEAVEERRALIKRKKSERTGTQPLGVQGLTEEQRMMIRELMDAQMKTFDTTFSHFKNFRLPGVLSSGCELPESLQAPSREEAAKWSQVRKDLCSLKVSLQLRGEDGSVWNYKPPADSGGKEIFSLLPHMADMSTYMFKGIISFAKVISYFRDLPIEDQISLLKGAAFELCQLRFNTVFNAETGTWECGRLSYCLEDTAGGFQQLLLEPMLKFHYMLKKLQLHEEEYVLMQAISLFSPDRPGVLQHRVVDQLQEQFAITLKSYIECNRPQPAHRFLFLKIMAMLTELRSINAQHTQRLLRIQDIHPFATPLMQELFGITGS

[3] = biological target: T2, zebrafish PXR (Danio rerio, UniProt A5WYG8)
T2 sequence (A5WYG8 144-430): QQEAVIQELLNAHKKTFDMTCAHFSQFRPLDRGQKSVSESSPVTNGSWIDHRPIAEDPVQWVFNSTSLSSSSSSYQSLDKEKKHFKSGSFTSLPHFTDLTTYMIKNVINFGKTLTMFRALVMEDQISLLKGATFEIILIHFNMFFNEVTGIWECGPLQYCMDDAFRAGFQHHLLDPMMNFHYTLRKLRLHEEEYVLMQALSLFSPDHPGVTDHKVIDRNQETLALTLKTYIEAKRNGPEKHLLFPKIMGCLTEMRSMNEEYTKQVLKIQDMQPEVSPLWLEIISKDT

[4] = test system: HepG2 cells
[5] = biological target: T1, human PXR
[6] = relative to 20 μM 5α-androstan-3α-ol, assigned an efficacy of 1.0
[7] = -log(EC50), EC50 in molar units, activation of human PXR
[8] = -log(EC50), EC50 in molar units, activation of zebrafish PXR
[9] = hPXR Activity, -log(EC50), EC50 in molar units, activation of human PXR

Molecule | Toxicity [1] | hPXR Activity [2, 7] | zfPXR Activity [3, 8] | Toxicity [4] | hPXR Efficacy [5] | also measured
C[C@]12CCC(=O)C[C@@H]1CC[C@@H]1[C@@H]2CC[C@]2(C)[C@@H](O)CC[C@@H]12 [AN5, 5α-Androstan-17β-ol-3-one] | None |  |  |  |  | hPXR Efficacy [2]: 0.39; zfPXR Efficacy [3, 6]: 0.59
C[C@]12CC[C@@H](O)C[C@H]1CC[C@@H]1[C@@H]2[C@@H](O)C[C@]2(C)C(=O)CC[C@@H]12 [AN11, 5β-Androstan-3α,11β-diol-17-one] | None | 4.72 | 4.52 |  |  | hPXR Efficacy [2]: 0.51; zfPXR Efficacy [3, 6]: 1.04
C[C@]12CC[C@H](OS(=O)(=O)O)CC1=CC[C@@H]1[C@@H]2CC[C@]2(C)C(=O)CC[C@@H]12 [AN12, 5-Androsten-3β-sulfate-17-one] |  | 4.32 | None | None | 0.22 | 
C[C@]12CC[C@@H](O)C[C@H]1CC[C@@H]1[C@@H]2C(=O)C[C@]2(C)C(=O)CC[C@@H]12 [AN14, 5β-Androstan-3α-ol-11,17-dione] | None | 4.39 | 5.01 |  |  | hPXR Efficacy [2]: 0.15; zfPXR Efficacy [3, 6]: 0.49
C[C@]12CC[C@H]3[C@@H](CCC4=CC(=O)CC[C@@]43C)[C@@H]1CC[C@H]2O[C@@H]1O[C@H](C(=O)O)[C@@H](O)[C@H](O)[C@H]1O [AN16, 4-Androsten-17α-glucosiduronate-3-one] | None | 4.86 | None |  |  | hPXR Efficacy [2]: 0.69
C[C@]12CC[C@H]3[C@@H](CCC4=CC(=O)CC[C@@]43C)[C@@H]1CC[C@H]2OS(=O)(=O)O [AN17, 4-Androsten-17α-sulfate-3-one] |  | 5.47 | None | None | 0.67 | 
C[C@H](CCCO)[C@H]1CC[C@H]2[C@@H]3[C@H](O)C[C@H]4CC(=O)CC[C@]4(C)[C@H]3C[C@H](O)[C@]12C [BI28, 5α-Cholan-7α,12α,-24-triol-3-one] | None | None | None |  |  | 
C[C@H](CCCOS(=O)(=O)O)[C@H]1CC[C@H]2[C@@H]3[C@H](O)C[C@H]4C[C@H](O)CC[C@]4(C)[C@H]3C[C@H](O)[C@]12C [BI30, 5α-Cholan-3α,7α,12α-triol-24-sulfate] | None | 4.55 | None |  |  | hPXR Efficacy [2]: 1.02
C[C@H](CCC(=O)O)[C@H]1CC[C@H]2[C@@H]3[C@H](O)C[C@H]4CC(=O)CC[C@]4(C)[C@H]3C[C@H](O)[C@]12C [BI33, 5α-Cholanic acid-7α,12α-diol-3-one] | None | 4.92 | None |  |  | hPXR Efficacy [2]: 0.26
CC(CCC[C@@H](C)[C@H]1[C@H](O)C[C@H]2[C@@H]3[C@H](O)C[C@H]4C[C@@H](OS(=O)(=O)O)CC[C@]4(C)[C@H]3CC[C@]12C)COS(=O)(=O)O (stereo partly drawn) [BI39, 5α-Cholestan-7α,16α-diol-3β,27-disulfate] | 200 µM | None | None |  |  | 
C[C@H](CCC(=O)NCC(=O)O)[C@H]1CC[C@H]2[C@@H]3CC[C@@H]4C[C@H](OS(=O)(=O)O)CC[C@]4(C)[C@H]3CC[C@]12C [BI43, 5β-Cholanic acid-3α-sulfate N-(carboxymethyl)-amide] | None |  | None |  |  | hPXR Efficacy [2]: 0.19
C[C@H](CCC(=O)NCCS(=O)(=O)O)[C@H]1CC[C@H]2[C@@H]3CC[C@@H]4C[C@H](OS(=O)(=O)O)CC[C@]4(C)[C@H]3CC[C@]12C [BI44, 5β-Cholanic acid-3α-sulfate N-(2-sulfoethyl)-amide] |  |  | None | None |  | EC50 [2, 9]: 83.2 µM; hPXR Efficacy ([5]; human, 1 day): 0.55
CC(C)CCC[C@@H](C)[C@H]1CC[C@H]2[C@@H]3CC[C@H]4C[C@H](O)CC[C@]4(C)[C@H]3CC[C@]12C [BI45, 5α-Cholestan-3α-ol] | None | None | None |  |  | 
C[C@]12CC[C@@H]3c4ccc(OS(=O)(=O)O)cc4CC[C@H]3[C@@H]1CC[C@@H]2O [ES10, 1,3,5(10)-Estratrien-17β-ol-3-sulfate] |  | 6.05 | None | 200 µM | 0.6 | 
CCOP(=S)(OCC)Oc1nc(Cl)c(Cl)cc1Cl [MI10, Chlorpyrifos] |  |  |  | None |  | EC50 [2, 9]: 25.7 µM; hPXR Efficacy ([5]; human): 2.05
Cc1cc(O)c(C)c2c1O[C@](C)(CCC[C@H](C)CCC[C@H](C)CCCC(C)C)CC2 [MI38, β-Tocopherol] |  | 4.85 | None | 100 µM | 0.33 | 
Cc1cc(O)cc2c1O[C@](C)(CCC[C@H](C)CCC[C@H](C)CCCC(C)C)CC2 [MI39, δ-Tocopherol] |  | 5.14 | None | 100 µM | 0.64 | 
CC(O)C1CCC2C3CCC4CC(O)CCC4(C)C3CCC12C (stereo not drawn) [PR1, 5β-Pregnan-3α,20α-diol] |  | 5.29 | None | 100 µM | 0.34 | 
C[C@]12CC[C@H]3[C@@H](CCC4=CC(=O)CC[C@@]43C)[C@@H]1CC[C@@H]2C(=O)CO [PR9, 4-Pregnen-21-ol-3,20-dione] |  |  |  |  |  | Toxicity ([4]; human): 200 µM; EC50 ([2]; Human PXR EC50 (concentration class, Figure 2A)): < 10 µM; EC50 ([2]; hPXR Activity): 2.45 µM; hPXR Efficacy ([5]; human): 0.3; Zebrafish PXR EC50 (concentration class, Figure 2B) [3]: Inactive; zfPXR Activity [3]: None
CC(=O)[C@H]1CC[C@H]2[C@@H]3CC[C@H]4C[C@H](O)CC[C@]4(C)[C@H]3CC[C@]12C [PR14, 5α-Pregnan-3α-ol-20-one] |  |  |  | None |  | EC50 [2, 9]: 4.17 µM; hPXR Efficacy ([5]; human): 0.46
C[C@H](O)[C@H]1CC[C@H]2[C@@H]3CC[C@H]4C[C@H](O)CC[C@]4(C)[C@H]3CC[C@]12C [PR15, 5α-Pregnan-3α,20α-diol] |  | 4.28 | 4.58 | None | 0.16 | zfPXR Efficacy [3]: 0.29
C[C@H](O)[C@H]1CC[C@H]2[C@@H]3CC[C@@H]4C[C@H](O[C@@H]5O[C@H](C(=O)O)[C@@H](O)[C@H](O)[C@H]5O)CC[C@]4(C)[C@H]3CC[C@]12C [PR16, 5β-Pregnan-3α,20α-diol-3-glucosiduronate] |  | 4.26 | 4.78 | None | 0.17 | zfPXR Efficacy [3, 6]: 1.42
C[C@]12CC[C@@H](O)C[C@@H]1CC[C@@H]1[C@@H]2[C@@H](O)C[C@]2(C)[C@@H](C(=O)CO)CC[C@@H]12 [PR20, 5α-Pregnan-3α,11β,21-triol-20-one] |  | 4.90 | None | None | 0.26 | 
C[C@@H](O)[C@H]1CC[C@H]2[C@@H]3CC[C@@H]4C[C@H](O)CC[C@]4(C)[C@H]3CC[C@]12C [PR23, 5β-Pregnan-3α,20β-diol] |  |  | 5.95 | None |  | hPXR Activity [5]: 5.42; zfPXR Efficacy [3, 6]: 0.25
C[C@]12CC[C@@H](O)C[C@H]1CC[C@@H]1[C@@H]2[C@@H](O)C[C@@]2(C)[C@H]1CC[C@]2(O)C(=O)CO [PR24, 5β-Pregnan-3α,11β,17,21-tetrol-20-one] |  |  | 3.94 | None |  | hPXR Activity [5]: 4.33; zfPXR Efficacy [3, 6]: 0.11
CC(=O)[C@H]1CC[C@H]2[C@@H]3CC[C@@H]4C[C@H](O)CC[C@]4(C)[C@H]3CC[C@]12C [PR25, 5β-Pregnan-3α-ol-20-one] |  | 4.98 | 6.64 | 100 µM | 0.55 | 
CC(=O)[C@H]1CC[C@H]2[C@@H]3CC=C4C[C@@H](OS(=O)(=O)O)CC[C@]4(C)[C@H]3CC[C@]12C [PR26, 5-Pregnen-20-one-3β-sulfate] |  |  | 4.95 | None |  | hPXR Activity [5]: None; zfPXR Efficacy [3, 6]: 0.23
Vitamin K2 [MI45] |  | 5.04 | None | 100 µM | 0.80 | 
